Among the test systems are HCC 2998; HT-29; IGROV-1; Malme-3M; NCI-H23; NCI-H460; NCI/ADR-RES; OVCAR-8; SNB-19; SR; T47D; UACC-62; UO-31; LOX IMVI; SNB-75.
What all share (assay): inhibition of tumour cell growth, NCI panel, 48 h

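Cells were grown in 96-well plates and exposed to each compound for 48 hours at five concentrations; endpoints were interpolated linearly between bracketing concentrations, or set to the highest concentration if not reached. The concentration for 50% growth inhibition is given as GI50.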 Active and inactive are the calls of the source. No stated cut-off is given here; in the data, active = GI50 up to about 1.1 µM and inactive = higher. Starred links: 1 amine or outer side, 2 acyl side, 3 side chain; linkers in the order of their positions; H or OH if unused. Positions of bridges follow the written chain, without caps; N, C: chain ends. Non-standard residues stand in square brackets, D forms with d. Residues, ends and D or L forms follow the SMILES beside them. Chains are numbered I, II in the order given. Actinocin(9to1) = Cc1c2oc3c(C)ccc(C(=O)[*:1])c3nc-2c(C(=O)[*:2])c(N)c1=O; NMeV = CN[CH](C(=O)O)C(C)C; Sar = CNCC(=O)O Bounds are passed on as bounds.

On to `COc1cc(/C=C(\C#N)c2nc3ccccc3o2)ccc1O`, for which the GI50 with HCC 2998 was 20.9 µM (inactive); with HT-29 it was 22.3 µM (inactive); in the assay with IGROV-1, 17.2 µM (inactive); in the assay on Malme-3M it was 19.8 µM (inactive); in the assay on NCI-H23 it was 24.2 µM (inactive); in the assay with NCI-H460 it was 15 µM (inactive). Moreover, the GI50 with NCI/ADR-RES is 24.1 µM (inactive); in the assay on OVCAR-8, 21.6 µM (inactive); in the assay on SNB-19 it was 32.4 µM (inactive); in the assay with SR, 24.2 µM (inactive); in the assay on T47D, 13.3 µM (inactive); with UACC-62, 18.6 µM (inactive). In the assay with UO-31, the GI50 is 25.5 µM (inactive).
Consider `COc1ccc2cc(C(=O)NCCCNC(=O)c3ccc4c(OC)c(OC)ccc4c3)ccc2c1OC`, for which the GI50 in the assay with HCC 2998, with HT-29, with LOX IMVI, in the assay on NCI-H23, with NCI-H460 and in the assay on NCI/ADR-RES was > 100 µM (inactive) in each case. Besides, the GI50 in the assay on SNB-19, in the assay on SR, in the assay on T47D, in the assay on UACC-62 and in the assay with UO-31 was > 100 µM (inactive) throughout.
Take `COC(=O)C1C(C(=O)OC)N(Cc2ccccc2)C(=O)N1Cc1ccccc1` (centres undefined): the GI50 in the assay on HCC 2998 is > 100 µM (inactive); in the assay on HT-29, > 100 µM (inactive); in the assay on IGROV-1, 85.7 µM (inactive); with LOX IMVI it was > 100 µM (inactive); with Malme-3M, > 100 µM (inactive); in the assay on NCI-H23, 75.5 µM (inactive). Besides, the GI50 in the assay with NCI-H460 is 69.5 µM (inactive); with NCI/ADR-RES, > 100 µM (inactive); in the assay on OVCAR-8 it was > 100 µM (inactive); with SNB-19, > 100 µM (inactive); in the assay on SNB-75, > 100 µM (inactive); in the assay on T47D it was 68.9 µM (inactive). Moreover, the values for the GI50 in the assay with UACC-62 and with UO-31 were 64.6 µM (inactive) and 87.7 µM (inactive), respectively.
For `CN1C(C)(C)CC(=O)C(Br)C1(C)C` (centres undefined), the GI50 in the assay with HT-29, in the assay with IGROV-1, in the assay with LOX IMVI, in the assay with Malme-3M, in the assay with NCI-H23 and in the assay on NCI-H460 was > 100 µM (inactive) each time. In addition, the GI50 with NCI/ADR-RES was > 100 µM (inactive); in the assay on OVCAR-8, > 100 µM (inactive); with SNB-19, > 100 µM (inactive); in the assay on SNB-75, 61.8 µM (inactive); with SR it was > 100 µM (inactive); in the assay on T47D, > 100 µM (inactive). Moreover, the GI50 in the assay on UACC-62 and in the assay on UO-31 was > 100 µM (inactive) in each case.
Take `c1cc2c(s1)-c1sccc1C21OCCO1`: the GI50 in the assay with HCC 2998 was > 100 µM (inactive); with HT-29, 97.7 µM (inactive); with LOX IMVI, > 100 µM (inactive); in the assay on Malme-3M it was 67.1 µM (inactive); with NCI-H23, > 100 µM (inactive); in the assay on NCI-H460, > 100 µM (inactive). For the same molecule, the GI50 in the assay with NCI/ADR-RES is > 100 µM (inactive); in the assay on OVCAR-8 it was > 100 µM (inactive); with SNB-19 it was > 100 µM (inactive); in the assay on SR it was > 100 µM (inactive); in the assay on T47D, 17.3 µM (inactive); with UACC-62 it was 19.5 µM (inactive). Further, the GI50 with UO-31 was > 100 µM (inactive).
For the molecule `COc1ccc(Nc2nc(N)c(C(=O)c3cccs3)s2)cc1`, the GI50 with HCC 2998 is 0.931 µM (active); in the assay on HT-29 it was 3.35 µM (inactive); with IGROV-1 it was 4.43 µM (inactive); in the assay with LOX IMVI, 6.67 µM (inactive); with Malme-3M, 30.1 µM (inactive); with NCI-H23 it was 12.8 µM (inactive). Also, the GI50 is 3.1 µM (inactive) in the assay on NCI-H460; 10.7 µM (inactive) with NCI/ADR-RES; 19.2 µM (inactive) in the assay with OVCAR-8; 11 µM (inactive) in the assay on SNB-19; 0.682 µM (active) in the assay with SR; 15.8 µM (inactive) in the assay with T47D. Moreover, the values for the GI50 in the assay on UACC-62 and in the assay with UO-31 were 11.3 µM (inactive) and 6.1 µM (inactive), respectively.
In the case of `O=C(NC1C(=O)NC(CCc2ccccc2)NC1=O)OCc1ccccc1` (centres undefined), the GI50 in the assay with HT-29, in the assay on IGROV-1, with LOX IMVI, in the assay on Malme-3M, in the assay with NCI-H23 and in the assay with NCI-H460 was > 100 µM (inactive) each time. The GI50 with NCI/ADR-RES, in the assay with OVCAR-8, with SNB-19, in the assay with SNB-75, in the assay with SR and in the assay with T47D was > 100 µM (inactive) in each case. Further, the GI50 in the assay with UACC-62 and with UO-31 was > 100 µM (inactive) throughout.
As to `CC(=O)O[C@H]1CC[C@H]2[C@@H]3CCC4=C/C(=N/OCCN(C)C)CC[C@]4(C)[C@H]3CC[C@]12C`, the GI50 in the assay on HCC 2998 is 6.43 µM (inactive); in the assay on HT-29 it was 2.06 µM (inactive); in the assay with IGROV-1, 13.1 µM (inactive); in the assay on LOX IMVI it was 3.16 µM (inactive); with Malme-3M it was 13.3 µM (inactive); in the assay on NCI-H23, 12.9 µM (inactive). In addition, the GI50 was 8.22 µM (inactive) in the assay on NCI-H460; 12.6 µM (inactive) in the assay on NCI/ADR-RES; 13.4 µM (inactive) in the assay with OVCAR-8; 7.59 µM (inactive) with SNB-19; 6.68 µM (inactive) in the assay with SNB-75; 5.81 µM (inactive) in the assay with T47D. In addition, the GI50 with UACC-62 was 10.7 µM (inactive); in the assay with UO-31, 14.9 µM (inactive).
`CC(=O)c1ccc(NCN2C(=O)c3ccccc3C2=O)cc1`: the GI50 in the assay on HCC 2998, in the assay on HT-29, in the assay with IGROV-1, in the assay on LOX IMVI, in the assay with Malme-3M and in the assay with NCI-H23 was > 100 µM (inactive) each time. For the same molecule, the GI50 was > 100 µM (inactive) with NCI-H460; > 100 µM (inactive) in the assay with NCI/ADR-RES; > 100 µM (inactive) in the assay with OVCAR-8; > 100 µM (inactive) with SNB-19; 30.5 µM (inactive) in the assay on SNB-75; > 100 µM (inactive) with T47D. The GI50 in the assay on UACC-62 and with UO-31 was > 100 µM (inactive) each time.
Turning to `CCOC(=O)C1C(=O)C=C(c2cc(C)ccc2O)CC1c1cccc(Cl)c1` (centres undefined), the GI50 in the assay with HCC 2998 was 24.5 µM (inactive); in the assay on HT-29, 32 µM (inactive); with IGROV-1 it was 13.6 µM (inactive); in the assay on LOX IMVI, 24.2 µM (inactive); in the assay on Malme-3M, 17.3 µM (inactive); with NCI-H23, 26.4 µM (inactive). For the same molecule, the GI50 in the assay on NCI-H460 is 26.1 µM (inactive); in the assay on NCI/ADR-RES it was 17.5 µM (inactive); in the assay with OVCAR-8 it was 29.3 µM (inactive); in the assay on SNB-19 it was 19.6 µM (inactive); with SR it was 5.21 µM (inactive); in the assay with T47D, 36.1 µM (inactive). Besides, the GI50 with UACC-62 is 13.9 µM (inactive); in the assay with UO-31, 19.6 µM (inactive).
`CCCCC[C@H]1CCCCCCCCCC(=O)OC2C(O[C@@H]3OC(C)[C@H](OC(=O)[C@@H](C)CC)C(O[C@@H]4OC(C)[C@H](O)C(O)[C@@H]4O)[C@@H]3OC(=O)[C@H](C)CC)[C@H](OC3C(O)[C@@H](O)C(C)O[C@H]3O1)OC(CO)[C@H]2O` (some centres undefined): the GI50 in the assay on HCC 2998 was 17.2 µM (inactive); in the assay with HT-29, 16.7 µM (inactive); in the assay on IGROV-1, 17.1 µM (inactive); in the assay with LOX IMVI, 17 µM (inactive); in the assay with Malme-3M it was 15.3 µM (inactive); with NCI-H23, 17.9 µM (inactive). In addition, the GI50 with NCI-H460 was 18.2 µM (inactive); with NCI/ADR-RES, 18.8 µM (inactive); in the assay on OVCAR-8, 19.3 µM (inactive); with SNB-19, 16.1 µM (inactive); in the assay with SR, 16.7 µM (inactive); in the assay on T47D it was 17 µM (inactive). In addition, the GI50 is 16.9 µM (inactive) with UACC-62 and 16.1 µM (inactive) with UO-31.
As to `COc1ccc(-c2oc3cc(OC(C)=O)cc(OC(C)=O)c3c(=O)c2OC)cc1`, the GI50 with HCC 2998 was 18.3 µM (inactive); in the assay with HT-29, 16.7 µM (inactive); in the assay on IGROV-1, 16.2 µM (inactive); with LOX IMVI, 14.5 µM (inactive); with Malme-3M, 26.5 µM (inactive); with NCI-H460 it was 16.9 µM (inactive). In addition, the GI50 was 14.7 µM (inactive) in the assay with NCI/ADR-RES; 17 µM (inactive) with OVCAR-8; 19 µM (inactive) in the assay with SNB-19; 13.5 µM (inactive) with SR; 19.7 µM (inactive) in the assay with T47D; 4.19 µM (inactive) in the assay on UACC-62. The GI50 in the assay on UO-31 was 19.6 µM (inactive).
With `Cc1c2oc3c(C)ccc(C(=O)NC4C(=O)NC(Cc5ccc(O)cc5)C(=O)N5CCCC5C(=O)N(C)CC(=O)N(C)C(C(C)C)C(=O)OC4C)c3nc-2c(C(=O)NC2C(=O)NC(Cc3ccc(O)cc3)C(=O)N3CCCC3C(=O)N(C)CC(=O)N(C)C(C(C)C)C(=O)OC2C)c(N)c1=O` (centres undefined) (I: TYP[Sar][NMeV] / II: TYP[Sar][NMeV]; ester I:1-I:C, II:1-II:C; linker I:N-II:N via Actinocin(9to1); configuration not given here), the GI50 with HCC 2998 was > 40.2 µM (inactive); with HT-29, 0.755 µM (active); in the assay on IGROV-1, 0.149 µM (active); with LOX IMVI it was 0.0859 µM (active); in the assay with Malme-3M it was 0.392 µM (active); with NCI-H23 it was 0.494 µM (active). The GI50 is 0.215 µM (active) in the assay on NCI-H460; > 94 µM (inactive) with NCI/ADR-RES; 0.8 µM (active) in the assay on OVCAR-8; 0.449 µM (active) in the assay on SNB-19; 0.139 µM (active) in the assay on SNB-75; 1.36 µM (inactive) in the assay on T47D. Further, the GI50 was 1.14 µM (inactive) in the assay on UACC-62 and 17.9 µM (inactive) with UO-31.
As to `Nc1ccccc1NC(=O)c1ccc(CNC(=O)OCc2cccnc2)cc1` [ENTINOSTAT], the GI50 is 1.41 µM (inactive) in the assay on HCC 2998; 0.524 µM (active) with HT-29; 2.78 µM (inactive) with IGROV-1; 0.859 µM (active) with LOX IMVI; 1.38 µM (inactive) in the assay on NCI-H23; 0.558 µM (active) in the assay on NCI-H460. The GI50 was 1.24 µM (inactive) with NCI/ADR-RES; 0.993 µM (active) with OVCAR-8; 2.65 µM (inactive) with SNB-19; 4.89 µM (inactive) in the assay with SNB-75; 0.708 µM (active) in the assay with T47D; 0.622 µM (active) in the assay on UACC-62. Moreover, in the assay on UO-31, the GI50 was 0.759 µM (active).

The values are drawn from ChEMBL document CHEMBL1201862, “PubChem BioAssay data set” (2004).
